In publication PMC4444023 (PLoS ONE, 2015):
Values joined by “and” are separate entries in the source; they are usually repeats but may differ in a detail not shown here. Equal entries are not always repeated. “Also recorded” adds a separate entry of the source. Each block holds one compound with its values, some of them ahead of it.

Key:
[1] = biological target: T1, human nSMase2 (Homo sapiens, UniProt Q9NY59); assay: Fluorescence (Amplex red coupled) nSMase2 activity assay; type: biochemical; parameters: Full length human nSMase2 cDNA with a C-terminal Flag tag; crude cell lysate used as enzyme
T1 sequence (Q9NY59 1-655): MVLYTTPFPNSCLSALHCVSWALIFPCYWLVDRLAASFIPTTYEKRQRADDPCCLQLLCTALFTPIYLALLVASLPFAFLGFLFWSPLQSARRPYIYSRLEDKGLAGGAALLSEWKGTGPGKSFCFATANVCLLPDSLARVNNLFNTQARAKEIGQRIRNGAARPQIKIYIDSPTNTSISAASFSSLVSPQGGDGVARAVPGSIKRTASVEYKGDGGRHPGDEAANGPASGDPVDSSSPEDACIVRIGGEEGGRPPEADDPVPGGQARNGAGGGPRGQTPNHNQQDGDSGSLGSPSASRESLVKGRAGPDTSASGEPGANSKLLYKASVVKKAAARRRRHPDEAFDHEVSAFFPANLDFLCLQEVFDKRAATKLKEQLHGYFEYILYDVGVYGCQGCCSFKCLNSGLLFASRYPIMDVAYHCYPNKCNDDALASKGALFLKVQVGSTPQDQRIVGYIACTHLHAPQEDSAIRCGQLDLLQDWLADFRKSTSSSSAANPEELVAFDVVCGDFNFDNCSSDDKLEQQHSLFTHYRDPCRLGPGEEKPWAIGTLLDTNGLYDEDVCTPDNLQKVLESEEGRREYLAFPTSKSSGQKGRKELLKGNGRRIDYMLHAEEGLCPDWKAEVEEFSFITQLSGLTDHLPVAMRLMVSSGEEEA
Protocol: The production of the latter was coupled to a dephosphorylation reaction catalyzed by alkaline phosphatase (4 U/ml) to produce choline, followed by oxidation of choline by choline oxidase (0.1 U/ml) to produce betaine and H2O2, which in the presence of horseradish peroxidase (HRP, 1U/ml) and 50 μM Amplex red, generates the fluorescent molecule resorufin (Life Technologies). Substrate stock solution was prepared in 2% Triton X-100, vortexed and sonicated for 30 min. Reactions were carried out for 1 h at 37°C in 100 mM Tris-HCl pH 7.4, 10 mM MgCl2, 0.2% Triton X-100 and the generation of the fluorescent product was monitored by measuring relative florescence units (RFU) with excitation at 530 nm and emission at 590 nm (Fig 1). This assay was optimized for 384-well format (50 μl total volume per well) based on linearity of the enzymatic activity with respect to time, as well as substrate and enzyme concentrations. […] This fluorescence assay was used for compound screening and IC50 value determinations, based on duplicate eight-point dose response curves.

[2] = biological target: nSMase; parameters: method as in PMID 21615386, PMID 17049336; conditions: cited from earlier work
[3] = tested on: rat primary cortical neurons; assay: Lipid extraction and ceramide measurements (LC-MS/MS); type: cell-based
Protocol: Primary cortical neurons were prepared from embryonic day 18 Sprague-Dawley rats following previously described methods. […] A crude lipid extract from cortical neurons was obtained using a modified Bligh and Dyer procedure. Ceramide C12:0 (Avanti Polar Lipids) was included as an internal standard. The organic layers were dried in a nitrogen evaporator (Organomation Associates Inc.) and stored at -80°C. Dried organic layers were resuspended in methanol just prior to analysis. The detection and quantitation of individual ceramide species was performed on a high-performance liquid chromatography (HPLC) coupled electrospray ionization triple quadrupole mass spectrometer (API3000, AB Sciex Inc.) using settings similar to those described in previous studies. Samples were handled by a CTC PAL autosampler (LEAP Technologies Inc.) and injected into an HPLC (PerkinElmer) equipped with a reverse phase C18 column (Phenomex). […] The eluted sample was injected into the electrospray ionization source and detection of each ceramide species was conducted by multiple reaction monitoring. Spectral analysis was conducted using MultiQuant (AB Sciex Inc.), individually validated and normalized to the internal standard. Final data for each ceramide species in counts per second was expressed as the ratio of analyte/internal standard.

[4] = tested on: rat primary hippocampal neurons; assay: Hippocampal neuronal survival (Hoechst 33342); type: cell-based
Protocol: All animal procedures were approved by the Johns Hopkins University Animal Care and Use Committee. Primary hippocampal neurons were prepared from day 18 decapitated embryos of Sprague-Dawley rats following previously described methods. Cells were seeded on polyethyleneimine (PEI)-coated slides in 12-well plates and cultured between 14–21 days. […] After 18 h, cells were stained with 50 μg/ml Hoeschst 33342 for 20 min and then fixed with 4% paraformaldehyde for 30 min. The number of living and apoptotic cells was determined by fluorescence microscopy. A minimum of 500 cells were counted per treatment condition. Results were normalized to control untreated cells and were representative of at least two independent experiments conducted in triplicate. Statistical evaluation of the data was done by Student’s t-test.

[5] = biological target: T1, human nSMase2; assay: 14C-SM confirmatory direct activity assay; type: biochemical; parameters: Full length human nSMase2 cDNA with a C-terminal Flag tag; host or cells: HEK293, stably transfected; crude cell lysate used as enzyme; conditions: for IC50: [14C]-SM direct activity assay, human recombinant enzyme
Protocol: This assay was dependent on the direct hydrolysis of ^14C-labeled SM (^14C N-methyl groups in the phosphorylcholine) by human nSMase2. Optimization of assay conditions was accomplished according to the methods of Barbone et al.. Briefly, bovine [N-methyl-^14C]-sphingomyelin (specific activity […], Perkin Elmer) and phosphatidylinositol (Avanti Polar Lipids) were evaporated to dryness under a stream of nitrogen and resuspended at an equimolar concentration of 0.1 mM in water with 0.5% Triton X-100 (Sigma). The solution was vortexed for 30 min and then sonicated for 30 min. Assay conditions were as follows: 50 μl total volume per reaction, consisting of 20 μM SM, reaction buffer (100 mM Tris-HCl pH 7.5, 80 mM MgCl2, 0.1% Triton X-100); 10 μl cell lysate containing recombinant human nSMase2 (0.5–1 μg protein/assay) and 5 μl of compound in reaction buffer containing 10% DMSO. After 1 h incubation at 37°C the reaction was terminated by the addition of 30 μl of water and 175 μl of chloroform/methanol (2:1, v:v), followed by vigorous vortexing. Tubes were centrifuged for 5 min at 10,000 xg at room temperature to separate the organic bottom phase containing labeled SM and the aqueous upper phase containing ^14C-labeled-phosphorylcholine. An aliquot (50 μl) of the upper phase was transferred to a vial with 10 ml of scintillant and counted for 2 min on a Beckman LS-6000IC scintillation counter. Enzyme activity was directly proportional to the disintegrations per min (dpm) resulting from the generation of ^14C-phosphorylcholine.

[6] = TNF-a: 100 ng/ml TNF-α for 2 min

effect on human nSMase2 activity ([1]; 20 μM SM/PS at equimolar concentration (S5 Fig)): did not significantly affect
Compound: phosphatidylserine

inhibition of human nSMase2 activity ([1]; DMSO up to 1%): no significant inhibition
Compound: C[S+](C)[O-] [DMSO]
human nSMase2 activity ([1]; 0.1% DMSO): 2703.2500 RFU and 2871.2510 RFU and 2454.0980 RFU and 2595.8260 RFU | human nSMase2 activity ([1]; 1% DMSO): 2256.2870 RFU and 2299.5150 RFU and 2360.8330 RFU and 2629.8220 RFU | human nSMase2 activity ([1]; 10% DMSO): 1706.1510 RFU and 1610.6720 RFU and 1424.4530 RFU and 1442.3390 RFU

enzymatic activity ([1]; [SM] 3.91 µM): 212.26 RFU | enzymatic activity ([1]; [SM] 7.81 µM): 311.45 RFU | enzymatic activity ([1]; [SM] 15.63 µM): 459.12 RFU | enzymatic activity ([1]; [SM] 31.25 µM): 722.04 RFU | enzymatic activity ([1]; [SM] 62.50 µM): 1075.56 RFU | enzymatic activity ([1]; [SM] 125.00 µM): 1331.12 RFU | enzymatic activity ([1]; [SM] 250.00 µM): 1431.87 RFU | enzymatic activity ([1]; [SM] 500.00 µM): 1408.02 RFU
Compound: sphingomyelin [SM]

Compound: COc1cc(O)c(C(=O)O)c(-c2cc(O)c(O)cc2C)c1 [Altenusin, reference compound]
IC50 ([2]; Enzyme source: Rat brain): 28 µM | MOI [2]: Non- competitive | modulation of enzymatic activity (Fig 3C raw data) ([1]; 100 µM): 75.4 RFU and 73.8 RFU and 72.1 RFU and 74.7 RFU | inhibition of human nSMase2 activity ([1]; 150 μM GW4869, 100 μM manumycin A, altenusin, zoledronic acid): possible to inhibit enzyme activity; also recorded: inhibition

Compound: TNF-α
Ceramide d18:1/16:0, ratio analyte/internal standard [3, 6]: 2.626 and 2.724 and 1.914 and 2.181 and 2.47 and 2.215 | Ceramide d18:1/18:0, ratio analyte/internal standard [3, 6]: 9.562 and 9.737 and 7.685 and 8.892 and 9.601 and 8.529 | Ceramide d18:1/20:0, ratio analyte/internal standard [3, 6]: 0.6563 and 0.629 and 0.4932 and 0.6036 and 0.6125 and 0.6685 | Ceramide d18:1/22:0, ratio analyte/internal standard [3, 6]: 0.2034 and 0.2174 and 0.1793 and 0.213 and 0.2196 and 0.1978 | Ceramide d18:1/24:0, ratio analyte/internal standard [3, 6]: 0.2705 and 0.2427 and 0.2002 and 0.2059 and 0.2011 and 0.2312 | Ceramide d18:1/24:1, ratio analyte/internal standard [3, 6]: 0.2934 and 0.2773 and 0.185 and 0.2472 and 0.2529 and 0.2866 | Dihexosylceramides d18:1/16:0, ratio analyte/internal standard [3, 6]: 0.0212 and 0.02618 and 0.02908 and 0.01607 and 0.02926 and 0.02318 | Dihexosylceramides d18:1/18:0, ratio analyte/internal standard [3, 6]: 0.1307 and 0.1534 and 0.1151 and 0.09786 and 0.1336 and 0.132 | Dihydroceramides d18:0/18:0, ratio analyte/internal standard [3, 6]: 0.1552 and 0.1446 and 0.1353 and 0.136 and 0.1435 and 0.1236 | Monohexosylceramides d18:1/16:0, ratio analyte/internal standard [3, 6]: 1.65E-01 and 1.78E-01 and 1.43E-01 and 1.25E-01 and 1.46E-01 and 1.28E-01 | Monohexosylceramides d18:1/18:0, ratio analyte/internal standard [3, 6]: 8.33E-01 and 9.27E-01 and 8.86E-01 and 8.09E-01 and 8.11E-01 and 9.45E-01 | Monohexosylceramides d18:1/20:0, ratio analyte/internal standard [3, 6]: 1.68E-01 and 1.71E-01 and 1.46E-01 and 1.34E-01 and 1.36E-01 | Monohexosylceramides d18:1/22:0, ratio analyte/internal standard [3, 6]: 6.26E-02 and 5.07E-02 and 4.08E-02 and 5.38E-02 and 5.08E-02 and 5.16E-02 | Monohexosylceramides d18:1/24:0, ratio analyte/internal standard [3, 6]: 4.46E-02 and 4.59E-02 and 3.01E-02 and 3.48E-02 and 3.50E-02 and 3.93E-02 | Monohexosylceramides d18:1/24:1, ratio analyte/internal standard [3, 6]: 9.28E-02 and 9.45E-02 and 8.80E-02 and 6.42E-02 and 8.57E-02 and 6.27E-02 | effect on long chain ceramide levels ([3]; rat primary cortical neurons): rapid increase

%Inhibition ([5]; Log [compound] -4.0): -11.0% and -13.0% | %Inhibition ([5]; Log [compound] -5.0): -11.0% and -12.0% | %Inhibition ([5]; Log [compound] -6.0): -2.0% and -3.0% | %Inhibition ([5]; Log [compound] -7.0): 3.0% and 0.0% | %Inhibition ([5]; Log [compound] -9.0): 4.0% | %Inhibition ([5]; Log [compound] -10.0): -1.0% and -2.0% | human nSMase2 inhibitory activity of analog vs cambinol ([5]; SAR): loss of activity | IC50 [5]: > 100 µM
Compound: O=c1[nH]c(-c2ccccc2)c(Cc2c(O)ccc3ccccc23)c(=O)[nH]1 [compound 2]
neuron survival, Mean (normalized to control untreated cells) ([4]; 100 ng/ml IL1β 18 h, 10 µM compound): 79.08 | neuron survival, Mean (normalized to control untreated cells) ([4]; 100 ng/ml IL1β 18 h, 25 µM compound): 81.7 | neuron survival, Mean (normalized to control untreated cells) ([4]; 100 ng/ml TNFα 18 h, 10 µM compound): 76.55 | neuron survival, Mean (normalized to control untreated cells) ([4]; 100 ng/ml TNFα 18 h, 25 µM compound): 81.8

%Inhibition ([5]; Log [compound] -4.0): 95.0% and 94.0% | %Inhibition ([5]; Log [compound] -5.0): 80.0% and 79.0% | %Inhibition ([5]; Log [compound] -6.0): 22.0% and 21.0% | %Inhibition ([5]; Log [compound] -7.0): 2.0% and 0.0% | %Inhibition ([5]; Log [compound] -8.0): -8.0% and -11.0% | %Inhibition ([5]; Log [compound] -9.0): -1.0% and -3.0% | %Inhibition ([5]; Log [compound] -10.0): -11.0% and -10.0% | IC50 [5]: 3 µM
Compound: Cc1ccccc1-c1[nH]c(=S)[nH]c(=O)c1Cc1c(O)ccc2ccccc12 [compound 6]
